In ChEMBL document CHEMBL1124754, “Hypoxia-selective antitumor agents. 4. Relationships between structure, physicochemical properties, and hypoxia-selective cytotoxicity for nitracrine analogues with varying side chains: the "iminoacridan hypothesis"” (J Med Chem, 1990):

Tests used:
[1] = Hypersensitivity factor, IC50 (AA8) air /IC50 (UV4) in N2; format: functional
[2] = IC50 (air/N2) ratio of the drug to reduce cell numbers to 50 percent of controls using AA8 cells in the microassay; format: functional, Cricetulus griseus, CHO-AA8
[3] = Acridine pKa values were determined in aqueous solution at 25 degrees Centigrade by spectrophotometric method.; format: physicochemical
[4] = Hypersensitivity factor, IC50 (AA8) air /IC50 (UV4) in air; format: functional
[5] = Tested for the concentration of the drug to reduce cell numbers to 50 percent of controls against AA8 cells in the microassay; format: functional, cell-based, Cricetulus griseus; settings: cho-aa8
[6] = Tested for the product of the drug concentration to the exposure time needed to reduce cell survival to 10% of controls using AA8 cells at 10 E 6 /mL in the clonogenic assay; format: functional, Cricetulus griseus, CHO-AA8
[7] = CT10 (air/N2) ratio of the product of the drug concentration to the exposure time needed to reduce cell survival to 10% of controls using AA8 cells at 10 E 6 /mL in the clonogenic assay; format: functional, Cricetulus griseus, CHO-AA8
[8] = CT10 (air/N2) ratio of the product of the drug concentration to the exposure time needed to reduce cell survival to 10% of controls using AA8 cells at 10 E 6 /mL in the clonogenic assay; range is 0.8-1.5; format: functional, Cricetulus griseus, CHO-AA8
[9] = CT10 (air/N2) ratio of the product of the drug concentration to the exposure time needed to reduce cell survival to 10% of controls using AA8 cells at 10 E 6 /mL in the clonogenic assay; range is 1-2; format: functional, Cricetulus griseus, CHO-AA8

Compound	HF [1]	IC50 ratio [2]	pKa [3]	HF [4]	IC50 [5]	CT10 [6]	CT10 ratio [7]	CT10 ratio [8]	CT10 ratio [9]
O=[N+]([O-])c1cccc2nc3ccccc3c(NCCCO)c12	13	1.45	7.55	15	27 nM	0.43 µM·h	3	–	–
CNc1c2ccccc2nc2cccc([N+](=O)[O-])c12	11	1.3	7.2	11	3.8 nM	0.01 µM·h	–	1.5	–
CN(C)CCCCCCNc1c2ccccc2nc2cccc([N+](=O)[O-])c12	–	1.55	7.4	–	11.5 nM	0.38 µM·h	6.8	–	–
CC(C)CCNc1c2ccccc2nc2cccc([N+](=O)[O-])c12	16	1.13	7.4	12	120 nM	3.2 µM·h	2.4	–	–
CN(C)CCCCNc1c2ccccc2nc2cccc([N+](=O)[O-])c12	29	2.6	6.9	20	26 nM	0.46 µM·h	11.9	–	–
Nc1c2ccccc2nc2cccc([N+](=O)[O-])c12	5.8	1.02	7.3	4.5	3600 nM	3.9 µM·h	–	–	2
CNCCCNc1c2ccccc2nc2cccc([N+](=O)[O-])c12	11	4.8	6.2	14	34 nM	0.38 µM·h	5.9	–	–
O=C(O)CCCNc1c2ccccc2nc2cccc([N+](=O)[O-])c12	6.6	4.2	–	6.1	18000 nM	50 µM·h	2.5	–	–
CN(C)CCNc1c2ccccc2nc2cccc([N+](=O)[O-])c12	15	7.4	4.9	19	47 nM	1.22 µM·h	14	–	–
CN(C)CCCNc1c2ccccc2nc2cccc([N+](=O)[O-])c12 [NITRACRINE]	14.9	3.5	6.2	12.9	26.3 nM	0.47 µM·h	9.9	–	–
O=[N+]([O-])c1cccc2nc3ccccc3c(NCCO)c12	18	1.1	7.2	15	11.5 nM	0.13 µM·h	3.2	–	–
CCCNc1c2ccccc2nc2cccc([N+](=O)[O-])c12	20	1.42	7.2	11	32 nM	0.62 µM·h	3.4	–	–
CN(C)CCCCCNc1c2ccccc2nc2cccc([N+](=O)[O-])c12	–	1.65	7.4	–	15.5 nM	0.32 µM·h	7	–	–
O=[N+]([O-])c1cccc2nc3ccccc3c(NCc3ccccc3)c12	17	1.2	7.4	12	380 nM	9 µM·h	1.9	–	–
O=[N+]([O-])c1cccc2nc3ccccc3c(NCCc3ccccc3)c12	15	1.3	7.4	14	122 nM	2.8 µM·h	2.3	–	–
